Results from patent US12679848B2, “Plasma kallikrein inhibitors” (Merck Sharp & Dohme LLC, priority 2020, dated 2026).

Legend:
human factor XIa = human factor XIa (Homo sapiens, UniProt P03951); assay: Factor XIa Assay; format: biochemical; settings: human factor XIa 0.04 nM, substrate GPR-AFC, 30 min pre-incubation, 25° C., pH 7.4; read-out: FXIa IC50
Description: (§1) The effectiveness of a compound of the present invention as an inhibitor of Coagulation factor XIa can be determined using a relevant purified serine protease, and an appropriate synthetic substrate. The rate of hydrolysis of the chromogenic or fluorogenic substrate by the relevant serine protease was measured both in the absence and presence of compounds of the present invention. Assays were conducted at rt or at 37° C. […] A decrease in the rate of fluorescence change in the presence of inhibitor is indicative of enzyme inhibition. Such methods are known to one skilled in the art. The results of this assay are expressed as the half-maximal inhibitory concentrations (IC50), or the inhibitory constant, Ki.
Compounds were pre-incubated for 30 min at 25° C. with human (0.04 nM) factor XIa in 50 mM HEPES buffer with 150 mM sodium chloride, 5 mM calcium chloride, 0.1% PEG 8000, pH 7.4. factor XIa enzymatic activity was determined by addition of the substrate glycine-proline-arginine-7-amido-4-trifluoromethylcoumarin (GPR-AFC) and measurement of the fluorescence at 400/505 nm after a 60 min incubation at 25° C. The % inhibition for each data point was calculated from the data and analyzed using the log (inhibitor) vs. response four parameters equation to determine the half-maximal inhibitory concentrations (IC50). The IC50 were converted to equilibrium inhibitory constants (Ki) using the Cheng-Prusoff equation.

Human plasma kallikrein = biological target: T1, Human plasma kallikrein (Homo sapiens, UniProt P03952); assay: Plasma Kallikrein Assay; format: biochemical; settings: purified Human plasma kallikrein 0.5 nM, substrate Acetyl-K-P-R-AFC, HEPES pH 7.4; read-out: PKal IC50
T1 construct: yields a heavy chain (371 amino acids) and a light chain (248 amino acids); The active site of plasma kallikrein is contained in the light chain; purchased Enzyme Research Laboratories
Description: as §1, with “plasma kallikrein” for “Coagulation factor XIa”
Plasma kallikrein determinations were made in 50 mM HEPES buffer at pH 7.4 containing 150 mM NaCl, 5 mM CaCl2), and 0.1% PEG 8000 (polyethylene glycol; Fisher Scientific). Determinations were made using purified Human plasma kallikrein at a final concentration of 0.5 nM (Enzyme Research Laboratories) and the synthetic substrate, Acetyl-K—P—R-AFC (Sigma #C6608) at a concentration of […].
Times required to achieve equilibration between enzyme and inhibitor were determined in control experiments. […] IC50 was determined by inflection point from a four parameter logistic curve fit. Ki was calculated using the Cheng Prusoff equation, Ki=IC50/[…](1+([S]/Km)).

Chain of human factor XIa (P03951 388-625 limits assumed): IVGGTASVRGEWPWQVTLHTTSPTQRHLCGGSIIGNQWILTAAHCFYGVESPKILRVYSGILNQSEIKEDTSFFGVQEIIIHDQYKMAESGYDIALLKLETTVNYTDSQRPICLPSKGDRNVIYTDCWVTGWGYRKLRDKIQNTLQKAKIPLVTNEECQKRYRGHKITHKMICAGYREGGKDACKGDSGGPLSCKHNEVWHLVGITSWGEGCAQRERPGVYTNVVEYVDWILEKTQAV
Chain of human factor XIa (P03951 19-387 partner limits assumed): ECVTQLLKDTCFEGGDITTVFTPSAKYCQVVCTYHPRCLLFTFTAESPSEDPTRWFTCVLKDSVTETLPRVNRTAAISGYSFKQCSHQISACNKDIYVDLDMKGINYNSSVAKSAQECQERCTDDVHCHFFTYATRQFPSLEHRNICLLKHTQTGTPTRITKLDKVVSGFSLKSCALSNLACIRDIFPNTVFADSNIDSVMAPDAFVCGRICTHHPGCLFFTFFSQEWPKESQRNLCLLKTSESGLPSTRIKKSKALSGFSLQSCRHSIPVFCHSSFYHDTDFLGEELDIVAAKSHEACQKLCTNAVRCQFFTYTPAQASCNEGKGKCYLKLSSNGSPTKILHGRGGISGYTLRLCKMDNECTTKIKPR
T1 sequence (P03952 391-638 limits assumed): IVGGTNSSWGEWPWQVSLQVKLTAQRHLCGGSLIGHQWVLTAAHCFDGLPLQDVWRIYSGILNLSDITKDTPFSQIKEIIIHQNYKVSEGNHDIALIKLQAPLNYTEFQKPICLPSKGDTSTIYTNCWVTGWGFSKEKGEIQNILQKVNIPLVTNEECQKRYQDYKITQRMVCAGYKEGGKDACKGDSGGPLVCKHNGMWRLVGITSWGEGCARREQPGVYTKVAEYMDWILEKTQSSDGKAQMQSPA
T1 sequence (P03952 20-390 partner limits assumed): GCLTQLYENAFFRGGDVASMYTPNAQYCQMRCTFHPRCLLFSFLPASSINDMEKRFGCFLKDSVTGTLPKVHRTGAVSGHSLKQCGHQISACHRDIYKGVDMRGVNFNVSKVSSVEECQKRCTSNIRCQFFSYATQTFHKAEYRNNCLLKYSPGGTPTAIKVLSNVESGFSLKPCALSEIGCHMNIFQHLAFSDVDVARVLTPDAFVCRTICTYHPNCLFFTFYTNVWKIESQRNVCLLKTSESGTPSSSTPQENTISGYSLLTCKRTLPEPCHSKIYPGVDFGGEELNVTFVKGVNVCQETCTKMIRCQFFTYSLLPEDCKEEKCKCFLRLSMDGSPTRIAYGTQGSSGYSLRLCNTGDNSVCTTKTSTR

| SMILES | IC50 (human factor XIa) [nM] | IC50 (Human plasma kallikrein) [nM] |
| --- | --- | --- |
| CC[C@@H](n1ncc(C(=O)N2CCC[C@@]3(C2)OC(=O)Nc2ccc(Cl)c(F)c23)c1N)C(F)(F)F (single isomer, unassigned) [Example 3] | 105 |  |
| CC[C@H](n1ncc(C(=O)N2CCC[C@@]3(C2)OC(=O)Nc2ccc(Cl)c(F)c23)c1N)C(F)(F)F (single isomer, unassigned) [Example 4] | 9 |  |
| Nc1c(C(=O)N2CCC[C@@]3(C2)OC(=O)Nc2ccc(Cl)c(F)c23)cnn1C1(C(F)(F)F)CC[C@@H]2C[C@@H]21 (single isomer, unassigned) [Example 56, (R)-1'-(5-Amino-1-((1S,2S or R,5R)-2-(trifluoromethyl)bicyclo[3.1.0]hexan-2-y1)-1H-pyrazole-4-carbonyl)-6-chloro-5-fluorospiro[benzo[d][1,3]oxazine-4,3'-piperidin]-2(1H)-one] | 932 | 2.9 |
| Nc1c(C(=O)N2CCC[C@@]3(C2)OC(=O)Nc2ccc(Cl)c(F)c23)cnn1Cc1ccccc1 [Example 8, (R)-1'-(5-Amino-1-benzyl-1H-pyrazole-4-carbonyl)-6-chloro-5-fluorospiro[benzo[d][1,3]oxazine-4,3'-piperidin]-2(1H)-one] | 68 |  |

Continued, values first:

| IC50 (human factor XIa) [nM] | IC50 (Human plasma kallikrein) [nM] | SMILES |
| --- | --- | --- |
| 62 | 2.2 | CCC(C1CCOCC1)n1ncc(C(=O)N2CCC[C@@]3(C2)OC(=O)Nc2ccc(Cl)c(F)c23)c1N (single isomer, unassigned) [Example 112, (R)-1'-(5-Amino-1-((R or S)-1-(tetrahydro-2H-pyran-4-yl)propyl)-1H-pyrazole-4-carbonyl)-6-chloro-5-fluorospiro[benzo[d][1,3]oxazine-4,3'-piperidin]-2(1H)-one] |
| 2 | 0.6 | CCC(C1CCOCC1)n1ncc(C(=O)N2CCC[C@@]3(C2)OC(=O)Nc2ccc(Cl)c(F)c23)c1N (single isomer, unassigned) [Example 113, (R)-1'-(5-Amino-1-((S or R)-1-(tetrahydro-2H-pyran-4-yl)propyl)-1H-pyrazole-4-carbonyl)-6-chloro-5-fluorospiro[benzo[d][1,3]oxazine-4,3'-piperidin]-2(1H)-one] |
| 103 | 2.8 | Nc1c(C(=O)N2CCC[C@@]3(C2)OC(=O)Nc2ccc(Cl)c(F)c23)cnn1C(C(F)(F)F)C1(F)CC1 (single isomer, unassigned) [Example 114, (R)-1'-(5-Amino-1-((R or S)-2,2,2-trifluoro-1-(1-fluorocyclopropyl)ethyl)-1H-pyrazole-4-carbonyl)-6-chloro-5-fluorospiro[benzo[d][1,3]oxazine-4,3'-piperidin]-2(1H)-one] |
| 42 | 0.6 | Nc1c(C(=O)N2CCC[C@@]3(C2)OC(=O)Nc2ccc(Cl)c(F)c23)cnn1C(C(F)(F)F)C1(F)CC1 (single isomer, unassigned) [Example 115, (R)-1'-(5-Amino-1-((S or R)-2,2,2-trifluoro-1-(1-fluorocyclopropyl)ethyl)-1H-pyrazole-4-carbonyl)-6-chloro-5-fluorospiro[benzo[d][1,3]oxazine-4,3'-piperidin]-2(1H)-one] |
| 4140 |  | Nc1c(C(=O)N2CCC[C@@]3(C2)OC(=O)Nc2ccc(Cl)c(F)c23)cnn1-c1ccccc1 [Example 57, (R)-1'-(5-Amino-1-phenyl-1H-pyrazole-4-carbonyl)-6-chloro-5-fluorospiro[benzo[d][1,3]oxazine-4,3'-piperidin]-2(1H)-one] |
| 262 |  | Nc1c(C(=O)N2CCC[C@@]3(C2)OC(=O)Nc2ccc(Cl)c(F)c23)cnn1-c1ccccc1OC(F)(F)F [Example 72, (R)-1'-(5-Amino-1-(2-(trifluoromethoxy)phenyl)-1H-pyrazole-4-carbonyl)-6-chloro-5-fluorospiro[benzo[d][1,3]oxazine-4,3'-piperidin]-2(1H)-one] |
